Data from patent US20100190788A1, “Amide derivatives as kinase inhitors” (priority 2005, published 2010).

Biological target: T1, human ROCKα/ROCKII mix (Homo sapiens, UniProt O75116)
T1 construct: purchased Upstate Biotechnology 14-451
Experiment: ROCK inhibition, fluorescence polarization (FP) assay with ROCK IMAP Kit
Type: biochemical
Protocol: The compounds were tested for inhibition of human ROCKα/ROCKII mix.
The inhibition assays were performed with a fluorescence polarization (FP) assay using the commercially available ROCK IMAP Kit from Molecular Devices (Product ID. No. R8093), essentially in accordance with the protocol supplied by the manufacturer. […] The enzyme mix ROCKα/ROCKII was obtained from Upstate Biotechnology (Product ID No 14-451).
In summary, all compounds were screened in the wells of a 384 well plate for enzymatic inhibition with concentrations varying from 100 μM to 0.3 nM using a stepwise 3 (or 2)-fold dilution.
To perform the assay, 1 μl of a solution of the compound to be tested in DMSO (at each concentration) was added to 2 μl of a solution of the enzyme in 10 mM Tris-HCl, 10 mM MgCl2, 0.1% BSA, 0.05% NaN3, pH 7.2. The final concentration of the enzyme was 2.6 nM.
After incubating for 30 minutes at RT, 2 μl of a mixture of ATP and the protein substrate in 10 mM Tris-HCl, 10 mM MgCl2, 0.1% BSA, 0.05% NaN3, pH 7.2 was added. The final concentration of the ATP was 10 μM and final concentration of protein substrate was 0.2 μM.
After incubating for 60 minutes at RT, 12 μl of the IMAP Binding Solution (mix of the IMAP Binding Buffer A (1×) and the IMAP Binding Reagent (from the ROCK IMAP kit)) was added.
The mixture thus obtained (total volume: 17 μl) was incubated for 60 minutes at RT, upon which the fluorescence polarization was measured using an automated plate reader (Perkin Elmer, Model Envision 2100-0010 HTS) with FP filters: excitation filter FITC FP 480 and emission filters FITC FP P-pol 535 and FITC FP S-pol 535 (Perkin-Elmer). The results were fitted to a curve using the XL-Fit algorithm and IC50 values were calculated for each fitted curve, again using the XL-Fit algorithm.

[1] = Table 1, compounds of Formula IV20
[2] = Table 2, compounds of Formula V20

T1 sequence (O75116 whole entry): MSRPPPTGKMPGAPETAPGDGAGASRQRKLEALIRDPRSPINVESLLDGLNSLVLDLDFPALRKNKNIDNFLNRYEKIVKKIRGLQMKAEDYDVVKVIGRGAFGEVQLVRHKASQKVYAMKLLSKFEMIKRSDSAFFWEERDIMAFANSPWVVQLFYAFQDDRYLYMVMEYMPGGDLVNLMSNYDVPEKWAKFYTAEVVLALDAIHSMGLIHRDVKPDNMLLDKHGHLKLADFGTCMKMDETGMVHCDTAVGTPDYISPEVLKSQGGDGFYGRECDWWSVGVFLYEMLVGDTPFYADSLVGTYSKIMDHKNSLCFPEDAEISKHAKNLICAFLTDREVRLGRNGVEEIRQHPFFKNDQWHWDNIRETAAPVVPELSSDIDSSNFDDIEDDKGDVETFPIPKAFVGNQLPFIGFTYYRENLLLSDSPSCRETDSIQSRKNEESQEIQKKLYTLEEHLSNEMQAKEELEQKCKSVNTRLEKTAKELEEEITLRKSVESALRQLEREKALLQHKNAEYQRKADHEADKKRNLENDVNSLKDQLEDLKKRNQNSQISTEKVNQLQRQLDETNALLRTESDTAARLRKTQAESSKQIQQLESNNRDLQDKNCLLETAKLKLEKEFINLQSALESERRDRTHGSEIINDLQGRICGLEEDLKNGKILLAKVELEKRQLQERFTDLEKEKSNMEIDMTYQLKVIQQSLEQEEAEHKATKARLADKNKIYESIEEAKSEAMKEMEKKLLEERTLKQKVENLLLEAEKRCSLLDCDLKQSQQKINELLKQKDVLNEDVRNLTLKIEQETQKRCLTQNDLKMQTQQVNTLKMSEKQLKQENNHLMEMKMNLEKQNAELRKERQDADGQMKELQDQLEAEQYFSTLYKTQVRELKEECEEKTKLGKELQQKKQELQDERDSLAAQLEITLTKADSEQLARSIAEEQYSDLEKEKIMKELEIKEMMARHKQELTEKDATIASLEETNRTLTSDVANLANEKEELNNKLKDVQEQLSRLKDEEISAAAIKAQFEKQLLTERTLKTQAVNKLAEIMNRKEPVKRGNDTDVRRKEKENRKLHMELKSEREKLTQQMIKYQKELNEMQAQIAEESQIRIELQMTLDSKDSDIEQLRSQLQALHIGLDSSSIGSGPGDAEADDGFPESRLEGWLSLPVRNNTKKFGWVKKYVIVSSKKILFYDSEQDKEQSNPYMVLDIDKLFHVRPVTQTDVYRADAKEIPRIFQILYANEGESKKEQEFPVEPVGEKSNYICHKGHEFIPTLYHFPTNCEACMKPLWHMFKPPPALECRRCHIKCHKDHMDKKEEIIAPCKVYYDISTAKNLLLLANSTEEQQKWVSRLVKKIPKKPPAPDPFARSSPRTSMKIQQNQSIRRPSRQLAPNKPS

SMILES | IC50 [1] [µM] | IC50 [2] [µM]
CONC(=O)C(N)c1ccc(C(=O)Nc2ccncc2)cc1 (stereo not drawn) [Compound 41, 4-(amino-methoxycarbamoyl-methyl)-N-pyridin-4-yl-benzamide] | 0.5 to 5 | 
CN(CCO)C(=O)C(N)c1ccc(C(=O)Nc2ccncc2)cc1 (stereo not drawn) [Compound 42, 4-{amino-[(2-hydroxy-ethyl)-methyl-carbamoyl]-methyl}-N-pyridin-4-yl-benzamide] | 0.5 to 5 | 
COCC(C)NC(=O)C(N)c1ccc(C(=O)Nc2ccncc2)cc1 (stereo not drawn) [Compound 43, 4-[amino-(2-methoxy-1-methyl-ethylcarbamoyl)-methyl]-N-pyridin-4-yl-benzamide] | 0.5 to 5 | 
CN(C)CCNC(=O)C(N)c1ccc(C(=O)Nc2ccncc2)cc1 (stereo not drawn) [Compound 44] | 0.5 to 5 | 
NC(C(=O)NCCN1CCOCC1)c1ccc(C(=O)Nc2ccncc2)cc1 (stereo not drawn) [Compound 45, 4-[amino-(2-morpholin-4-yl-ethylcarbamoyl)-methyl]-N-pyridin-4-yl-benzamide] | 0.5 to 5 | 
CC(C)N1CCN(C(=O)C(N)c2ccc(C(=O)Nc3ccncc3)cc2)CC1 (stereo not drawn) [Compound 46, 4-[1-amino-2-(4-isopropyl-piperazin-1-yl)-2-oxo-ethyl]-N-pyridin-4-yl-benzamide] | 0.5 to 5 | 
NC(C(=O)N1CCN(CCO)CC1)c1ccc(C(=O)Nc2ccncc2)cc1 (stereo not drawn) [Compound 52, 4-{1-amino-2-[4-(2-hydroxy-ethyl)-piperazin-1-yl]-2-oxo-ethyl}-N-pyridin-4-yl-benzamide] | 0.5 to 5 | 
CCCCNNC(=O)C(N)c1ccc(C(=O)Nc2ccncc2)cc1 (stereo not drawn) [Compound 54, 4-[amino-(N′-butyl-hydrazinocarbonyl)-methyl]-N-pyridin-4-yl-benzamide] | < 0.5 | 
CS(=O)(=O)NCC(N)c1ccc(C(=O)Nc2ccncc2)cc1 (stereo not drawn) [Compound 55, 4-(1-amino-2-methanesulfonylamino-ethyl)-N-pyridin-4-yl-benzamide] |  | < 0.5
CCS(=O)(=O)NCC(N)c1ccc(C(=O)Nc2ccncc2)cc1 (stereo not drawn) [Compound 56] |  | < 0.5
CCCS(=O)(=O)NCC(N)c1ccc(C(=O)Nc2ccncc2)cc1 (stereo not drawn) [Compound 57, 4-[1-amino-2-(propane-1-sulfonylamino)-ethyl]-N-pyridin-4-yl-benzamide] |  | < 0.5
CCCCS(=O)(=O)NCC(N)c1ccc(C(=O)Nc2ccncc2)cc1 (stereo not drawn) [Compound 58, 4-[1-amino-2-(butane-1-sulfonylamino)-ethyl]-N-pyridin-4-yl-benzamide] |  | < 0.5

The next lines start with the values.

IC50 [1] [µM] | IC50 [2] [µM] | SMILES
0.5 to 5 |  | NC(C(=O)N1CCN(c2ccccc2)CC1)c1ccc(C(=O)Nc2ccncc2)cc1 (stereo not drawn) [Compound 47, 4-[1-amino-2-oxo-2-(4-phenyl-piperzin-1-yl)-ethyl]-N-pyridin-4-yl-benzamide]
0.5 to 5 |  | NC(C(=O)N1CCN(Cc2ccccc2F)CC1)c1ccc(C(=O)Nc2ccncc2)cc1 (stereo not drawn) [Compound 48, 4-{1-amino-2-[4-(2-fluoro-benzyl)-piperazin-1-yl]-2-oxo-ethyl}-N-pyridin-4-yl-benzamide]
0.5 to 5 |  | NC(C(=O)N1CCN(Cc2ccc(F)cc2)CC1)c1ccc(C(=O)Nc2ccncc2)cc1 (stereo not drawn) [Compound 49, 4-{1-amino-2-[4-(4-fluoro-benzyl)-piperazin-1-yl]-2-oxo-ethyl}-N-pyridin-4-yl-benzamide]
0.5 to 5 |  | COc1ccc(CN2CCN(C(=O)C(N)c3ccc(C(=O)Nc4ccncc4)cc3)CC2)cc1 (stereo not drawn) [Compound 50, 4-{1-amino-2-[4-(4-methoxy-benzyl)-piperazin-1-yl]-2-oxo-ethyl}-N-pyridin-4-yl-benzamide]
0.5 to 5 |  | NC(C(=O)NC1CCN(Cc2ccccc2)CC1)c1ccc(C(=O)Nc2ccncc2)cc1 (stereo not drawn) [Compound 51, 4-{amino-[1-benzyl-piperidin-4-ylcarbamoyl]-methyl}-N-pyridin-4-yl-benzamide]
0.5 to 5 |  | Cc1ccc(CN2CCC(NC(=O)C(N)c3ccc(C(=O)Nc4ccncc4)cc3)CC2)s1 (stereo not drawn) [Compound 53, 4-{amino-[1-(5-methyl-thiophen-2-ylmethyl)-piperidin-4-ylcarbamoyl]-methyl}-N-pyridin-4-yl-benzamide]
